Data on 39 compounds can be found in US11878966B2, “Substituted 4-benzyl and 4-benzoyl piperidine derivates” (89BIO LTD, priority 2015, dated 2024).

Structures are written as SMILES.

For the assay, the target named is T1, recombinant human baculovirus-expressed GST-tagged FASN (Homo sapiens, UniProt P49327).
T1 construct: GST; host or cells: baculovirus expression system (insect cells implied)
T1 sequence (P49327 whole entry): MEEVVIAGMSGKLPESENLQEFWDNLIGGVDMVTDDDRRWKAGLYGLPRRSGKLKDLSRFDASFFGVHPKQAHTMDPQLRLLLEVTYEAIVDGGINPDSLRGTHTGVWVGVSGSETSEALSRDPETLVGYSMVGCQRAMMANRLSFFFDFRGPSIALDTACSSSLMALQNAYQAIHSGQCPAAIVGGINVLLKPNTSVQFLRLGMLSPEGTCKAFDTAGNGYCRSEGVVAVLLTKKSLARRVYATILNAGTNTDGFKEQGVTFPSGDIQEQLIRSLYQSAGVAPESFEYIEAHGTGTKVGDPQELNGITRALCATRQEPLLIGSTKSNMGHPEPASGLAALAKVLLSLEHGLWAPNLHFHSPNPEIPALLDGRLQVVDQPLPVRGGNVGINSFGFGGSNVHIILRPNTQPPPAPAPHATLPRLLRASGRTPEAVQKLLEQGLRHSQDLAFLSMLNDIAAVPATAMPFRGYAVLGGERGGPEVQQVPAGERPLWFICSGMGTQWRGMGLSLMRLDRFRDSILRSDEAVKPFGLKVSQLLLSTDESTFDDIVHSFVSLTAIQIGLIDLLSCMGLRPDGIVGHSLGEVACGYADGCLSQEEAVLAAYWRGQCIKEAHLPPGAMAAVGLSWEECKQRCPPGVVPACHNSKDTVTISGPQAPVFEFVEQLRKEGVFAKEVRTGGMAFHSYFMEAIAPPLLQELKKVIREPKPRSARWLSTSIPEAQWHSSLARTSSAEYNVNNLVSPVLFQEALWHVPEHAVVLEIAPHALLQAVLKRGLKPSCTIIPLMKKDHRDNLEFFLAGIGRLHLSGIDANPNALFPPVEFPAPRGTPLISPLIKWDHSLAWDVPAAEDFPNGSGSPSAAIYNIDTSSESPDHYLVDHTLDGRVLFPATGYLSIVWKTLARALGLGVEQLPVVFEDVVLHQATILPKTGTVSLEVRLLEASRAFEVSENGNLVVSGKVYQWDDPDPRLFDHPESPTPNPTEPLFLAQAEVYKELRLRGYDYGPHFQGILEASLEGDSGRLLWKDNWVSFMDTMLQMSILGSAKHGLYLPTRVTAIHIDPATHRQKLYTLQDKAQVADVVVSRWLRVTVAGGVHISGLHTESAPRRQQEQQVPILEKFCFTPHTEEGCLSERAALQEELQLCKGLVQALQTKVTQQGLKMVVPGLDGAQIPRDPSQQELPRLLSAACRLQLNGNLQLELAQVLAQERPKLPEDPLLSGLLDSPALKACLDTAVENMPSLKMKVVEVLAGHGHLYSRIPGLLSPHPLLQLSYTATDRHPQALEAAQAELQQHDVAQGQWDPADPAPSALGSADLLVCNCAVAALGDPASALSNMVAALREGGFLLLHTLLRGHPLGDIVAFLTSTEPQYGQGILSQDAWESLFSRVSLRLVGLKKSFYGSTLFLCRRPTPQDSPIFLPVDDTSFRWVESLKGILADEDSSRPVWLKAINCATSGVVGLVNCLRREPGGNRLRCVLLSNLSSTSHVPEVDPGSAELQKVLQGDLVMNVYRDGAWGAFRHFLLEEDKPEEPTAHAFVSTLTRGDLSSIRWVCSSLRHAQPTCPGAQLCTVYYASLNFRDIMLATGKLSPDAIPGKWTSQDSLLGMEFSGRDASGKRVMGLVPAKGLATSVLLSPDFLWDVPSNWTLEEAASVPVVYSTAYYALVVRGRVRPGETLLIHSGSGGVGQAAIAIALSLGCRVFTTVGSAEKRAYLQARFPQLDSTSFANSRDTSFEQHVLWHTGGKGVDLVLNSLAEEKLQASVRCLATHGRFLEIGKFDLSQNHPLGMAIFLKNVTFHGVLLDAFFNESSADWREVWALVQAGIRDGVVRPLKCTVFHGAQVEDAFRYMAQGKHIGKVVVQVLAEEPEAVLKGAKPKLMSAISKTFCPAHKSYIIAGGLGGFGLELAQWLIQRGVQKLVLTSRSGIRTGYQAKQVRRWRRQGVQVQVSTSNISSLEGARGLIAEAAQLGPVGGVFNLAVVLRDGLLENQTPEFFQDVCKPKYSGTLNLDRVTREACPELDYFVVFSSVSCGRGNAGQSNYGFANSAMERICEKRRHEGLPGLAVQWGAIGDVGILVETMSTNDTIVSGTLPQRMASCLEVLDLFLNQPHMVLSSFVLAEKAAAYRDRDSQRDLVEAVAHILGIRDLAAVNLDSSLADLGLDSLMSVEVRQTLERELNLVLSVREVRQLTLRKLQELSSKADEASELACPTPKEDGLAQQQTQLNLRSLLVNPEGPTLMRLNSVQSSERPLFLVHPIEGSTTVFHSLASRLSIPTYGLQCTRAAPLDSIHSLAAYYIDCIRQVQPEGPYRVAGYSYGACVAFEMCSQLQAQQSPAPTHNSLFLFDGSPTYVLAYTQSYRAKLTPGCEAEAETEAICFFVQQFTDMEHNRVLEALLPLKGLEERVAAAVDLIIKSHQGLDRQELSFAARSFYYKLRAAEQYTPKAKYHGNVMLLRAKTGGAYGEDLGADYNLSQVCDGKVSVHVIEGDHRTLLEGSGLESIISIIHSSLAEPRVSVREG
Nature of the assay: FASN enzyme activity assay: fluorescence-based detection of CoA with CPM. The class given is biochemical. The following applies: 5 nM FASN, 150 μM NADPH, 10 μM acetyl-CoA, 25 μM malonyl-CoA, 90 minutes incubation. Put shortly:
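GST-tagged human FASN (5 nM, baculovirus-expressed) in 50 mM HEPES pH 7.5 with 150 μM NADPH, 10 μM acetyl-CoA and 25 μM malonyl-CoA, 0.5% DMSO, started with malonyl-CoA and run 90 min. CoA was detected with CPM (30 min; ex 390/em 530 nm). IC50 came from sigmoidal variable-slope fits of % inhibition.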
Usually IC50 stands for the concentration needed to halve the response being measured. Regarding `CCC(=O)N1CCC(C(F)(F)c2ccc(-c3cnc4ccccc4c3C)cc2)CC1` [Example 9, 1-(4-{difluoro-[4-(4-methyl-quinolin-3-yl)-phenyl]-methyl}-piperidin-1-yl)-propan-1-one], the half-inhibitory concentration (IC50) lay in the range of 100 to 999 nM.

For the compound `O=C(C1CC1)N1CCC(Cc2ccc(-c3ccc4cccnc4c3Cl)cc2)CC1` [Example 30, {4-[4-(8-Chloroquinolin-7-yl)-benzyl]-piperidin-1-yl}-cyclopropylmethanone], the IC50 lay in the range of 1 to 99 nM.

Take `O=C(C1CC1)N1CCC(C(F)c2ccc(-c3cnc4ccccc4c3)cc2)CC1` (stereo not drawn) [Example 7, Cyclopropyl-{4-[fluoro-(4-quinolin-3-yl-phenyl)-methyl]-piperidin-1-yl}-methanone]: the IC50 was in the range of 1 to 99 nM.

Regarding `O=C(C1CC1)N1CCC(C2(c3ccc(-c4ccc5cccnc5c4)cc3)OCCO2)CC1` [Example 112, Cyclopropyl-{4-[2-(4-quinolin-7-yl-phenyl)-1,3-dioxolan-2-yl]-piperidin-1-yl}-methanone], the IC50 was in the range of 1000 to 10000 nM. For `COC(C)(c1ccc(-c2cnc3ccccc3c2)cc1)C1CCN(C(=O)C2CC2)CC1` (stereo not drawn) [Example 209, Cyclopropyl-{4-[1-methoxy-1-(4-quinolin-3-yl-phenyl)-ethyl]-piperidin-1-yl}-methanone] the value was 1 to 99 nM; for `O=C(C1CCCO1)N1CCC(F)(Cc2ccc(-c3cnc4ccccc4c3)cc2)CC1` (stereo in doubt) [Example 189, (R)-(4-fluoro-4-(4-(quinolin-3-yl)benzyl)piperidin-1-yl)(tetrahydrofuran-2-yl)methanone], 1 to 99 nM. For `O=C([C@H]1CCCO1)N1CCC(Cc2ccc(-c3cnc4ccccc4c3)cc2)CC1` [Example 4] the value was 1 to 99 nM. For `CCC(=O)N1CCC(C(F)(F)c2ccc(-c3cnc4ccccc4c3)cc2)CC1` [Example 16, 1-{4-[Difluoro-(4-quinolin-3-yl-phenyl)-methyl]-piperidin-1-yl}-propan-1-one] the value was 100 to 999 nM; for `CCC(=O)N1CCC(C(C)c2ccc(-c3ccc4cccnc4c3OC)cc2)CC1` (stereo not drawn) [Example 64, 1-(4-{1-[4-(8-Methoxyquinolin-7-yl)-phenyl]-ethyl}-piperidin-1-yl)-propan-1-one], 1 to 99 nM; for `CCC(=O)N1CCC(C(NC(C)=O)c2ccc(-c3cnc4ccccc4c3)cc2)CC1` (stereo not drawn) [Example 53, N-[(1-Propionylpiperidin-4-yl)-(4-quinolin-3-yl-phenyl)-methyl]-acetamide], 1000 to 10000 nM. `O=C(N1CCC(O)(Cc2ccc(-c3cc4ccccc4cn3)cc2)CC1)N1CCCO1` [Example 145, (4-hydroxy-4-(4-(isoquinolin-3-yl)benzyl)piperidin-1-yl)(isoxazolidin-2-yl)methanone]: the IC50 lay in the range of 1000 to 10000 nM.

For `CC(C)C(=O)N1CCC(C2(c3ccc(-c4ccc5ncccc5c4)cc3)OCCO2)CC1` [Example 102, 2-Methyl-1-{4-[2-(4-quinolin-6-yl-phenyl)-1,3-dioxolan-2-yl]-piperidin-1-yl}-propan-1-one], the IC50 fell in the range of 1000 to 10000 nM.

For the compound `O=C(C1CC1)N1CCC(F)(Cc2ccc(-c3cnc4ccccc4c3Cl)cc2)CC1` [Example 197, (4-(4-(4-Chloroquinolin-3-yl)benzyl)-4-fluoropiperidin-1-yl)(cyclopropyl)-methanone], the IC50 lay in the range of 1 to 99 nM. The figure for `CCC(=O)N1CCC(C(C)c2ccc(-c3ccc4cccnc4c3Cl)cc2)CC1` (stereo not drawn) [Example 72, 1-(4-{1-[4-(8-chloroquinolin-7-yl)-phenyl]-ethyl}-piperidin-1-yl)-propan-1-one] is 1 to 99 nM; for `CCC(=O)N1CC=C(Cc2ccc(-c3ccc4occc4c3)cc2)CC1` [Example 170, 1-(4-(4-(benzofuran-5-yl)benzyl)-5,6-dihydropyridin-1(2H)-yl)propan-1-one] it is 1 to 99 nM.

As for `CC(c1ccc(-c2cnc3ccccc3c2)cc1)C1CCN(C(=O)OC(C)(C)C)CC1` (stereo not drawn) [Example 57, 4-[1-(4-quinolin-3-yl-phenyl)-ethyl]-piperidine-1-carboxylic Acid t-Butyl Ester], the IC50 was 1000 to 10000 nM. For `CC(C)C(=O)N1CCC(Cc2ccc(-c3cnc4ccccc4c3)cc2)CC1` [Example 2, 2-Methyl-1-[4-(4-quinolin-3-yl-benzyl)-piperidin-1-yl]-propan-1-one] the value was 1 to 99 nM. For `COc1c(-c2ccc(C(C)C3CCN(C(=O)[C@H]4CCCO4)CC3)cc2)ccc2cccnc12` (mixture of isomers) [Example 69, (4-{1-[4-(8-Methoxyquinolin-7-yl)-phenyl]-ethyl}-piperidin-1-yl)-(R)-tetrahydrofuran-2-yl-methanone] the value was 1 to 99 nM; for `CCOC(C)(c1ccc(-c2cnc3ccccc3c2)cc1)C1CCN(C(=O)C2CC2)CC1` (stereo not drawn) [Example 207, Cyclopropyl-{4-[1-ethoxy-1-(4-quinolin-3-yl-phenyl)-ethyl]-piperidin-1-yl}-methanone], 100 to 999 nM. In the case of `CC(c1ccc(-c2cnc3ccccc3c2Cl)cc1)C1CCN(C(=O)C2CC2)CC1` (stereo not drawn) [Example 76, (4-{1-[4-(4-Chloroquinolin-3-yl)-phenyl]-ethyl}-piperidin-1-yl)-cyclopropylmethanone], the IC50 is 1 to 99 nM. For the compound `CONC(=O)N1CCC(Cc2ccc(-c3ccc4cccnc4c3C)cc2)CC1` [Example 231, N-methoxy-4-[[4-(8-methyl-7-quinolyl)phenyl]methyl]piperidine-1-carboxamide], the IC50 was 1 to 99 nM. The figure for `CCCC(=O)N1CCC(C2(c3ccc(-c4ccc5cccnc5c4)cc3)OCCO2)CC1` [Example 113, 1-{4-[2-(4-Quinolin-7-yl-phenyl)-1,3-dioxolan-2-yl]-piperidin-1-yl}-butan-1-one] is 1000 to 10000 nM; for `Cc1c(-c2ccc(CC3=CCN(C(=O)[C@H]4CCCO4)CC3)cc2)cnc2ccccc12` [Example 182, (R)-(4-(4-(4-methylquinolin-3-yl)benzyl)-5,6-dihydropyridin-1(2H)-yl)(tetrahydrofuran-2-yl)methanone] it is 1 to 99 nM; for `CCC(=O)N1CCC(C(C)(OC)c2ccc(-c3cnc4ccccc4c3)cc2)CC1` (stereo not drawn) [Example 208, 1-{4-[1-Methoxy-1-(4-quinolin-3-yl-phenyl)-ethyl]-piperidin-1-yl}-propan-1-one] it is 100 to 999 nM. For `CCCC(c1ccc(-c2cnc3ccccc3c2)cc1)C1CCN(C(=O)CC)CC1` (stereo not drawn) [Example 54, 1-{4-[1-(4-Quinolin-3-yl-phenyl)-butyl]-piperidin-1-yl}-propan-1-one] the value was 1 to 99 nM; for `O=C(N1CCC(C2(c3ccc(-c4ccc5ncccc5c4)cc3)OCCO2)CC1)C(F)(F)F` [Example 98, 2,2,2-Trifluoro-1-{4-[2-(4-quinolin-6-yl-phenyl)-1,3-dioxolan-2-yl]-piperidin-1-yl}-ethanone], 1000 to 10000 nM; for `CC(=O)N1CCC(C2(c3ccc(-c4ccc5ccncc5c4)cc3)OCCO2)CC1` [Example 115, 1-{4-[2-(4-Isoquinolin-7-yl-phenyl)-1,3-dioxolan-2-yl]-piperidin-1-yl}-ethanone], 1000 to 10000 nM. For `CCC(=O)N1CCC(C(CC)c2ccc(-c3cnc4ccccc4c3)cc2)CC1` (stereo not drawn) [Example 47, 1-{4-[1-(4-Quinolin-3-yl-phenyl)-propyl]-piperidin-1-yl}-propan-1-one] the value was 1 to 99 nM. `CCC(=O)N1CCC(C(=O)c2ccc(-c3ccc4cnccc4c3)cc2F)CC1` [Example 127, 1-[4-(2-Fluoro-4-isoquinolin-6-yl-benzoyl)-piperidin-1-yl]-propan-1-one]: the IC50 was in the range of 1 to 99 nM. The figure for `CC(C)(c1ccc(-c2cnc3ccccc3c2)cc1)C1CCN(C(=O)C2CC2)CC1` [Example 204, Cyclopropyl(4-(2-(4-(quinolin-3-yl)phenyl)propan-2-yl)piperidin-1-yl)methanone] is 100 to 999 nM; for `O=C([C@@H]1CCCO1)N1CCC(Cc2ccc(-c3cnc4ccccc4c3)cc2)CC1` [Example 5] it is 1 to 99 nM. The figure for `CC(C)C(=O)N1CCC(C(=O)c2ccc(-c3ccc4ncccc4c3)cc2)CC1` [Example 109, 2-Methyl-1-[4-(4-quinolin-6-yl-benzoyl)-piperidin-1-yl]-propan-1-one] is 1000 to 10000 nM; for `CCOC(C)(c1ccc(-c2ccc3cccnc3c2)cc1)C1CCN(C(=O)C2CC2)CC1` (stereo not drawn) [Example 215, Cyclopropyl-{4-[1-ethoxy-1-(4-quinolin-7-yl-phenyl)-ethyl]-piperidin-1-yl}-methanone] it is 100 to 999 nM; for `CC(C)C(=O)N1CCC(C2(c3ccc(-c4ccc5cccnc5c4)cc3)OCCO2)CC1` [Example 111, 2-Methyl-1-{4-[2-(4-quinolin-7-yl-phenyl)-1,3-dioxolan-2-yl]-piperidin-1-yl}-propan-1-one] it is 1000 to 10000 nM. As for `CCC(=O)N1CCC(Cc2ccc(-c3ccc4cccnc4c3C)cc2)CC1` [Example 23, 1-{4-[4-(8-Methylquinolin-7-yl)-benzyl]-piperidin-1-yl}-propan-1-one], the IC50 lay within 1 to 99 nM.

`CCC(=O)N1CCC(C(=O)c2ccc(-c3ccc4cccnc4c3)cc2F)CC1` [Example 142, 1-[4-(2-Fluoro-4-quinolin-7-yl-benzoyl)-piperidin-1-yl]-propan-1-one]: the half-maximal inhibitory concentration (IC50) was 100 to 999 nM. The figure for `O=C(C1CC1)N1CCC(F)(Cc2ccc(-c3ccc4cccnc4c3)cc2)CC1` [Example 173, Cyclopropyl(4-fluoro-4-(4-(quinolin-7-yl)benzyl)piperidin-1-yl)methanone] is 100 to 999 nM; for `O=C(C1CC1)N1CC=C(Cc2ccc(-c3cnc4ccccc4c3Cl)cc2)CC1` [Example 198, (4-(4-(4-Chloroquinolin-3-yl)benzyl)-3,6-dihydropyridin-1(2H)-yl)(cyclopropyl)methanone] it is 100 to 999 nM; for `CCC(=O)N1CC=C(Cc2ccc(-c3ccc4cnccc4c3)cc2)CC1` [Example 166, 1-(4-(4-(isoquinolin-6-yl)benzyl)-5,6-dihydropyridin-1(2H)-yl)propan-1-one] it is 100 to 999 nM.
